In ChEMBL document CHEMBL4184160, “Recent Progress of Small-Molecule Epidermal Growth Factor Receptor (EGFR) Inhibitors against C797S Resistance in Non-Small-Cell Lung Cancer” (J Med Chem, 2018):

What was measured:
[1] = biological target: Epidermal growth factor receptor (Homo sapiens, UniProt P00533, 746-750DEL/C797S/T790M); assay: Inhibition of recombinant human EGFR d746-750/T790M/C797S mutant using poly-Glu-Tyr (4:1) as substrate after 2 hrs in presence of [gamma-33P]-ATP by filter-binding method
Chain of Epidermal growth factor receptor (Homo sapiens, UniProt P00533, 746-750DEL/C797S/T790M) (P00533 whole entry, looked up, stated change not applied, the tested form may be a part): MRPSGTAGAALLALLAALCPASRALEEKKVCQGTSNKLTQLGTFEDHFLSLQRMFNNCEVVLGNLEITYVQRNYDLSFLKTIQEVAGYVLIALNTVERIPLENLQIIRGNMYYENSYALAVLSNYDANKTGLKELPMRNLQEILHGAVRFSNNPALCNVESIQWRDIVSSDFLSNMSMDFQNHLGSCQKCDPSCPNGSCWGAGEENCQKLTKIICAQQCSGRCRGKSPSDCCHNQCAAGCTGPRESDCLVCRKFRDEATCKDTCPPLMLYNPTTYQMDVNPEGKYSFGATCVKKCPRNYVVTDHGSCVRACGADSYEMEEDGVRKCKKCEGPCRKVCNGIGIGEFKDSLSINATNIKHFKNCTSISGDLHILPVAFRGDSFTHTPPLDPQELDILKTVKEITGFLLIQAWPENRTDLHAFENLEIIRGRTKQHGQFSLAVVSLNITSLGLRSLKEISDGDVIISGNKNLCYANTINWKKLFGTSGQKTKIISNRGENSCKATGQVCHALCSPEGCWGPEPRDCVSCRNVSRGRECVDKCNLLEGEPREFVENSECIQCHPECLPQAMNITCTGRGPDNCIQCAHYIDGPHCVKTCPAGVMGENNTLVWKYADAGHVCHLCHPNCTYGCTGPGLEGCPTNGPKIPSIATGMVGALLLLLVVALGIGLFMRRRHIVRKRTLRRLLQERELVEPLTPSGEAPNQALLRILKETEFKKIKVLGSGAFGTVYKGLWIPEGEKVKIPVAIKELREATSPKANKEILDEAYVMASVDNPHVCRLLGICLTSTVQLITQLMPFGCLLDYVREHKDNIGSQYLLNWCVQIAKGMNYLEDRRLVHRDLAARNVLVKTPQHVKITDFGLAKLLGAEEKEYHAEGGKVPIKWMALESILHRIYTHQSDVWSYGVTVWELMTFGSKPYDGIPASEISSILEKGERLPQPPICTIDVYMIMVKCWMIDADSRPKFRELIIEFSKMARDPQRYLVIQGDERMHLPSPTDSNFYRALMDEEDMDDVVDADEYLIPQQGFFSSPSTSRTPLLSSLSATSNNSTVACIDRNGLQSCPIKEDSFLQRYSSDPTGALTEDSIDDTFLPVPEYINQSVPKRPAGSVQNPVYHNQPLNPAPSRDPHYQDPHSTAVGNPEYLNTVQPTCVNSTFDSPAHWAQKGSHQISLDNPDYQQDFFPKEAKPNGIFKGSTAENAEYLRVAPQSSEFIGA

[2] = species on record: Homo sapiens; assay: Selectivity ratio of IC50 for wild type recombinant N-terminal GST-tagged human EGFR catalytic domain to IC50 for recombinant human EGFR d746-750/T790M/C797S mutant
[3] = biological target: Epidermal growth factor receptor (Homo sapiens, UniProt P00533); assay: Inhibition of wild type recombinant N-terminal GST-tagged human EGFR catalytic domain expressed in Sf9 insect cells using poly-Glu-Tyr (4:1) as substrate after 2 hrs in presence of [gamma-33P]-ATP by filter-binding method
[4] = biological target: Epidermal growth factor receptor (Homo sapiens, UniProt P00533, C797S/L858R/T790M); assay: Inhibition of recombinant human EGFR L858R/T790M/C797S mutant using TK-substrate after 10 mins by HTRF KinEASE-TK assay
Chain of Epidermal growth factor receptor (Homo sapiens, UniProt P00533, C797S/L858R/T790M) (P00533 25-1210 T790M/C797S/L858R limits assumed): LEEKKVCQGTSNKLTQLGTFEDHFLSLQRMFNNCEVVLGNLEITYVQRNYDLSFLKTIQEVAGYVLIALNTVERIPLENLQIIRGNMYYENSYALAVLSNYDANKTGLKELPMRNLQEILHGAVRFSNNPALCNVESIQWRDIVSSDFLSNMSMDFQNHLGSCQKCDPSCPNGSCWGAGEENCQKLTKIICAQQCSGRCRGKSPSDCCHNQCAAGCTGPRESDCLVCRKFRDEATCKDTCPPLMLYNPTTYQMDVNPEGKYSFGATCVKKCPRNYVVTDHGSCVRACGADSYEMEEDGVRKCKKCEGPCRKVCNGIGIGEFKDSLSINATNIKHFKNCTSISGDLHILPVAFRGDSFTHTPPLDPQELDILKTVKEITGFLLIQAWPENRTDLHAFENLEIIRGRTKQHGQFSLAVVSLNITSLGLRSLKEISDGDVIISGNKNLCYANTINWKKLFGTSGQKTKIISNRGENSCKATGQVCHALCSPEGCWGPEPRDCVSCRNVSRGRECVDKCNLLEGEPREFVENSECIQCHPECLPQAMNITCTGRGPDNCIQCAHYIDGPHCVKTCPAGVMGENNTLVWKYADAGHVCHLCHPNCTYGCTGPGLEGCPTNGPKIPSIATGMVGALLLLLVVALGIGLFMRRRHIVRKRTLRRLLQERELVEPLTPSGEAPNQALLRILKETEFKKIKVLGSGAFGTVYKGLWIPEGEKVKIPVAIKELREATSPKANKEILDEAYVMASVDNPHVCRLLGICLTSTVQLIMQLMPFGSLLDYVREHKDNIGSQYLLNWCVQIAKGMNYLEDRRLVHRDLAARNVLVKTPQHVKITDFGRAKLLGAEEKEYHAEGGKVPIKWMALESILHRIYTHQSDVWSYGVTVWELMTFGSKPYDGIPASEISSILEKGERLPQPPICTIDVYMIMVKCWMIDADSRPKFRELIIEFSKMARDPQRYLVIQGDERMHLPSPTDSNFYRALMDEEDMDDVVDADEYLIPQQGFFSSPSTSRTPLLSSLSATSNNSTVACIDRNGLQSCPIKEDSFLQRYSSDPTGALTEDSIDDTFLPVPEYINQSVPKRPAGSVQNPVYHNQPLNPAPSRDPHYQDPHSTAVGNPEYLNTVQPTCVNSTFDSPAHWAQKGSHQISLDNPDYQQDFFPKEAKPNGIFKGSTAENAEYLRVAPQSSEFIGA

[5] = tested on: NCI-H1975; assay: Growth inhibition of human NCI-H1975 cells after 96 hrs by CellTiter-Glo assay; type: functional; details: NCI-H1975, 96 h
[6] = biological target: Epidermal growth factor receptor (Homo sapiens, UniProt P00533, C797S/T790M); assay: Inhibition of N-terminal GST-fused human EGFR cytoplasmic domain T790M/C797S mutant expressed in baculovirus expression system using TK-substrate after 20 mins by HTRF KinEASE-TK assay
Chain of Epidermal growth factor receptor (Homo sapiens, UniProt P00533, C797S/T790M) (P00533 25-1210 T790M/C797S limits assumed): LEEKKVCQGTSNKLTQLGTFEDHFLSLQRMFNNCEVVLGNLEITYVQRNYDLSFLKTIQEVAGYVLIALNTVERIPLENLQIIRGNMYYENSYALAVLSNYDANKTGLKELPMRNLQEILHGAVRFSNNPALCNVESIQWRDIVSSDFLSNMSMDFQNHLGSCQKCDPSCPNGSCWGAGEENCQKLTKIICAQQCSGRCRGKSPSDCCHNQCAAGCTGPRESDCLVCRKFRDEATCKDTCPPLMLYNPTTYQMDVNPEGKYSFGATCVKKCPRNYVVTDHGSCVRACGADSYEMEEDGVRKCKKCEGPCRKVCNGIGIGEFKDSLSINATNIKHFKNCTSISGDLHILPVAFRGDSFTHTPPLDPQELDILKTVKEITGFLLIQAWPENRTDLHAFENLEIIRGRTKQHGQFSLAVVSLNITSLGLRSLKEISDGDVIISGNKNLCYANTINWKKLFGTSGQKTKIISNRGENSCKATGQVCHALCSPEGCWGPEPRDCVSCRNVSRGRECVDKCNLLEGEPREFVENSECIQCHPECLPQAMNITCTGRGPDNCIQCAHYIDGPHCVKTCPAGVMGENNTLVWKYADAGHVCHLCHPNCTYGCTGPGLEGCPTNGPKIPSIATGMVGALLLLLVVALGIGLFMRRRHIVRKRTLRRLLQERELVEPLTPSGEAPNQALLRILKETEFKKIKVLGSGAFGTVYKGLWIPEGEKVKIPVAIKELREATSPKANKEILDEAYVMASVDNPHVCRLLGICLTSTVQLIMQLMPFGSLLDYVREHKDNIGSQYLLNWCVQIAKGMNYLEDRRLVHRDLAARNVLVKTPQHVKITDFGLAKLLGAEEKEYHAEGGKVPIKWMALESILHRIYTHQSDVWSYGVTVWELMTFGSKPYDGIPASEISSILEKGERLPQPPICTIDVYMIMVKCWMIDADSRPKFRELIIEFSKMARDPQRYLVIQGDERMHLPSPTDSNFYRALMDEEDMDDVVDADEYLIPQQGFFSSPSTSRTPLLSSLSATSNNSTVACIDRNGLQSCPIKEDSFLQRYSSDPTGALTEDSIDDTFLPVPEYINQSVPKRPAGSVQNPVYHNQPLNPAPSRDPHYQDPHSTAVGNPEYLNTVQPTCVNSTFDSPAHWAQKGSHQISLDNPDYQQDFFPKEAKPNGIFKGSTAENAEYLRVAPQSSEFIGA

[7] = tested on: Epidermal growth factor receptor (Homo sapiens), P00533 [UNDEFINED MUTATION]
Chain of Epidermal growth factor receptor (Homo sapiens), P00533 [UNDEFINED MUTATION] (P00533 whole entry, looked up, stated change not applied): as the sequence (P00533 whole entry, looked up, stated change not applied, the tested form may be a part) above
Description: Inhibition of human EGFR del19/T790M/C797S mutant expressed in mouse Ba/F3 cells assessed as cell growth inhibition after 72 hrs by CellTiter-Glo assay

[8] = species on record: Homo sapiens; assay: Selectivity ratio of IC50 for human EGFR T790M mutant to IC50 for human wild type EGFR

| IC50 [1] [nM] | Ratio IC50 [2] | IC50 [3] [nM] | GI50 [7] [nM] | Compound | also measured |
| --- | --- | --- | --- | --- | --- |
|  |  |  | 780 | Cc1cc(Nc2ncc(Cl)c(Nc3ccccc3S(=O)(=O)C(C)C)n2)c(OC(C)C)cc1C1CCNCC1 |  |
|  |  |  | 132 | COc1cc(N2CCC(N)CC2)ccc1Nc1ncc(Cl)c(-c2c[nH]c3ccccc23)n1 |  |
|  |  |  | 1510 | COc1cc(N2CCC(N3CCN(C)CC3)CC2)ccc1Nc1ncnc(Nc2ccccc2S(=O)(=O)C(C)C)n1 |  |
|  |  |  | 59.1 | COc1cc(N2CCC(N(C)C)CC2)ccc1Nc1ncc(Cl)c(Nc2ccccc2P(C)(C)=O)n1 |  |

Further lines, the molecule ahead of its results:

| Compound | IC50 [1] [nM] | Ratio IC50 [2] | IC50 [3] [nM] | GI50 [7] [nM] | also measured |
| --- | --- | --- | --- | --- | --- |
| COC(=O)c1ccc(O)c(-c2nc(NCc3cccnc3)c3ccccc3n2)c1 | 46 | > 1000 | > 50000 |  |  |
| Oc1ccccc1-c1nc(NCc2cccnc2)c2ccccc2n1 | 149 | 163 | 24300 |  |  |
| C=CC(=O)N1CCC[C@@H](n2nc(-c3ccc4ccccc4c3)c3c(N)ncnc32)C1 |  |  |  |  | IC50 [4]: 88 nM; GI50 [5]: 140 nM; IC50 [6]: < 1 nM |
| C=CC(=O)Nc1cccc(Oc2nc(Nc3ccc(N4CCN(C)CC4)cc3OC)ncc2Cl)c1 |  |  |  |  | Ratio IC50 [8]: 30 to 100 |
| N#Cc1ccc(O)c(-c2nc(NCc3cccnc3)c3ccccc3n2)c1 | 23 | > 1000 | > 50000 |  |  |
| C=CC(=O)N1CCC[C@@H](n2nc(-c3cn(C)c4ccccc34)c3c(N)ncnc32)C1 |  |  |  |  | IC50 [4]: 838 nM; GI50 [5]: 210 nM; IC50 [6]: 2.5 nM |
| N#Cc1ccc(O)c(-c2nc(NCc3cnccn3)c3ccccc3n2)c1 | 17 | > 1000 | > 50000 |  |  |
| C=CC(=O)N1CCC[C@@H](n2nc(-c3cccc4ccccc34)c3c(N)ncnc32)C1 |  |  |  |  | IC50 [4]: 7900 nM; GI50 [5]: 490 nM; IC50 [6]: 1.9 nM |
